Measured values: patent US10111847B2, “Compounds and methods for modulating vascular injury” (The Regents of the University of California, priority 2012, dated 2018)

Columns and labels:
[1] = tested on: human saphenous vein vascular smooth muscle (sv-VSMC) cells; assay: TNFα induced superoxide production (DHE) in sv-VSMC (Maresin-1); type: cell-based; conditions: 100 nM; TNFα 10 ng/ml 4 hr
Procedure: Mar-1. Cells were grown in 8-well chamber slides at a density of 15000 cells/well for 2 days for VSMCs and 50000 cells/well for 2 days for ECs in a 96 well plate. After treatments, cells were incubated with dihydroethidium (DHE, 3 μM, Invitrogen) or CellRox (Invitrogen Inc, 5 μM for ECs) in media for 30 minutes at 37° C. in a humidified chamber with 5% CO2 protected from light. DAPI nuclear counter staining was utilized for DHE staining. For DHE, fluorescence was detected with TRITC filter allowing the detection of the DHE emission wavelength of 590-620 nm. Fluorescence quantitation was performed using ImageJ analysis software. For ECs, fluorescence measurements were taken using a Spectramax M2e plate reader.
FIGS. 13A-13D. Representative merged images of DHE staining, counterstained with DAPI. (A), Negative control. (B), TNFα at 10 ng/ml for 4 hr. […] (E) Quantitative comparison of DHE staining intensity in the nucleus of human saphenous vein vascular smooth muscle (sv-VSMC) cells, treated with TNFα and 7S and 7R-Maresin-1 with and without pertussis toxin. (F) Quantitative comparison of cellular ROS production by CellRox (Life technologies, Carlsbad, Calif.) in human saphenous vein endothelial (EC) cells treated with TNFα (1 ng/nil) and 7S-Maresin-1 (N>=3). […]

[2] = tested on: p65 subunit; assay: Nuclear translocation of p65 subunit in sv-VSMCs (immunofluorescence); type: cell-based, human; conditions: 100 nm, 30 min; TNFα 10 ng/ml 2 hrs
Procedure: Immunofluorescence for p65 (RelA): 15000 VSMCs or 30000 ECs were seeded on a 8-well chamber slide. Cells received 30 min of Maresin-1 pretreatment, followed by TNF-α for 2 hr. Cells were fixed in 2% paraformaldehyde, followed by permeabilization with ice-cold acetone (10 min) and 1% Triton X-100 (20 min). Cells were incubated overnight in a humidified chamber with anti-p65 antibody (Santa Cruz Biotechnology Inc.) followed by Alexa-fluor 488 tagged secondary antibody (Life Technologies) and were visualized under a fluorescent microscope.
FIGS. 16A-16D. VSMCs were grown in chamber slides and treated with vehicle or 100 nm of 7S or 7R-Maresin-1 with/without 10 ng/ml pertussis toxin for 30 min, followed by TNFα (10 ng/ml) for 2 hrs. Cells were fixed and subsequently stained with anti-p65 (Santa Cruz Biotechnology) and secondary antibodies (Alexa-488). (A-D) Representative images of Ctrl (A), TNFα (B), 7R-Maresin-1+TNFα (C) and 7R-Maresin-1+pertussis toxin (10 ng/ml)+TNFα. (E) Mean fluorescence of nucleus and cytoplasm were quantified from all groups and the net result of the ratio of nucleus over cytoplasmic mean fluorescence is depicted in the bar graph, as a measure of relative p65 nuclear translocation. (N>=3). […]

[3] = tested on: IKKα/β subunit; assay: TNFα induced phosphorylation of IKKα/β in sv-VSMCs, western blot; type: cell-based, human; conditions: 100 nm, 30 min; TNFα 10 ng/ml 15 min
Procedure: (§1) Mar-1. VSMCs and ECs were lysed in buffer (20 mM Tris-Hcl, 137 mM NaCl, 10% Glycerol, 1% NP-40) with protease and phosphatase inhibitors (Halt inhibitor capsules, Pierce, Inc) by sonication on ice. The lysates were instantly snap frozen in liquid nitrogen and thawed back later for western blotting. After centrifugation (15,000 g for 20 minutes), the whole cell extract (supernatant) was collected and was heated at 100° C. in Laemlli buffer for 6 minutes. Lysates were run on Mini-Protean TGX gels
(§2) (Biorad) and transferred on PVDF membranes which were probed with appropriate primary and secondary antibodies and visualized for quantitation using q-dot nanocrystals (Life Technologies, Inc).
(§3) Cells were pretreated with 100 nm of 7S/7R-Maresin-1 for 30 min, followed by TNFα (10 ng/ml for VSMC and 1 ng/ml for EC) for 15 min. Whole cell lysates were collected and probed for pan and phospho IKK (Cell Signaling Inc.).
(§4) FIG. 18. IKK-phospho and total IKK western blotting image is representative of three independent experiments. Bar graph represents net quantitative densitometry analysis. N=3. P≤0.05, One-way ANOVA with Dunnett's post hoc test. *: P≤0.05 compared to control, unpaired t-test. †: P≤0.05 compared to TNFα, unpaired t-test. Error bars: SEM.

[4] = tested on: IKKα/β subunit; assay: TNFα induced phosphorylation of IKKα/β in sv-ECs, western blot; type: cell-based, human; conditions: 100 nm, 30 min; TNFα 1 ng/ml 15 min
Procedure: as §1, §2, §3, §4

[5] = tested on: carotid artery; assay: Mouse carotid artery ligation model, neointima formation; type: in vivo, FVB Mice; conditions: intraperitoneal 100 ng/dose on days 0, 1, 3, 5 and 7; sacrificed at 14 days
Procedure: To examine the potential therapeutic effects of systemic administration of pro-resolving mediators in acute vascular injury, a standardized mouse model of carotid ligation was employed. FVB Mice (N=23) were treated with intraperitoneal administration of RvD2 (100 ng/dose), 7R Mar-1 (100 ng/dose) or vehicle on days 0 (4 hrs prior to carotid injury), 1, 3, 5 and 7. Total dose received was 500 ng/mouse. Unilateral carotid ligation was performed as a standardized model of vascular injury, induced by low shear. Animals were then sacrificed at 14 days and perfusion-fixed vessels explanted for analysis. Following elastin staining, neointima (NI) and medial (M) compartments were measured by a blinded observer, and ratios (area and average wall thickness) calculated. Analysis was performed at mid CCA level (2.5 mm from ligature).
FIG. 22. (A)-(C), depict a cross-section of a carotid artery at mid CCA level (2.5 mm from ligature) from carotid ligation mouse model administered vehicle (A), RvD2 (B), or 7R-Mar-1 (C). (D)-(E) depict NUM ratio of the cross-section of the carotid artery at mid CCA level from carotid ligation mouse model administered vehicle, RvD2, or 7R-Mar-1. […]

[6] = tested on: MCP-1; assay: MCP-1 expression in TNF-α stimulated VSMCs by qRT-PCR; type: cell-based, human; conditions: 10, 100 nM; TNF-α 10 ng/ml 18 hours; P<0.05
Procedure: FIGS. 15A-15D. Representative images of Calcein-AM labeled U937 monocytes adhered to human sv-VSMCs pretreated with vehicle (A, B) or 7S-Maresin-1 (C) or 7S-Maresin-1 and pertussis toxin (D) for 30 min, followed by TNFα at 10 ng/ml for 4 hr (B, C, D). (E) Quantitative analysis of U937 adhesion assay in human sv-VSMCs and (F) human sv-ECs (1 ng/ml TNFα used for EC cells). P≤0.05, One-way ANOVA with Dunnett's post hoc test. *: P≤0.05 compared to control, unpaired t-test. †: P≤0.05 compared to TNFα, unpaired t-test. ‡: P≤0.05 compared to TNFα+7S-Maresin-1, unpaired t-test. (G) VSMCs were pretreated with 7S-Maresin-1 or vehicle for 30 min, followed by TNFα at 10 ng/ml for 4 hr. Whole cell lysates were blotted for VCAM-1 (Pierce Inc.) and beta-actin (Sigma). VCAM-1 and beta-actin western blotting image is representative of three independent experiments. Bar graph represents net quantitative densitometry analysis. N=3. P=0.06, One-way ANOVA with Kruskal Wallis nonparametric test. P=0.07 of TNFα, compared to control, Mann Whitney test. P=0.20 of 7S-Maresin-1 at 10 nm and 100 nm compared to TNFα, Mann Whitney test. Error bars: SEM. […] Expression of MCP-1 was measured by qRT-PCR, and normalized to unstimulated cells (n=3, results are mean±SEM, P<0.05 for Mar-1 (10 and 100 nM) vs TNF alone, unpaired t-test).

Row | Compound | TNF-α-induced superoxide production in VSMC [1] | nuclear translocation of p65 subunit in human sv-VSMCs [2] | TNFα induced phosphorylation of IKKα/β subunit in human sv-VSMCs [3] | TNFα induced phosphorylation of IKKα/β subunit in human sv-ECs [4] | neointima formation following carotid artery ligation [5] | MCP-1 expression by TNF-α stimulated VSMCs [6]
1 | CC/C=C\C/C=C\C[C@@H](O)\C=C/C=C/C=C/[C@@H](O)C/C=C\CCC(=O)O [7R-Maresin-1, 7R,14S-dihydroxydocosa-4Z,8E,10E,12Z,16Z,19Z-hexaenoic acid] | Reduce | Inhibit | Reduce | Reduce | Reduces | –
2 | CC/C=C\C/C=C\CC(O)\C=C/C=C/C=C/C(O)C/C=C\CCC(=O)O (stereo not drawn) [Mar-1, maresin 1 (7, 14-dihydroxy DHA)] | – | – | – | – | – | reduced
